Like-named read-outs stand apart in the source and are kept apart here.
How the values were obtained:
[1] = system: SRS-A induced constriction of the guinea pig ileum; assay: Guinea Pig Ileum, In Vitro (SRS-A antagonism); type: cell-based; conditions: Cavia porcellus
Procedure: The guinea pig ileum bioassay system has been described by Orange and Austen, Adv. Immunol. […] A 1.5 cm segment is removed from animals weighing 300-400 g. and suspended in an organ bath containing 10 ml. of Tyrodes solution with 10^-6 M atropine sulfate and 10^-6 M pyrilamine maleate. […] The SRS-A utilized in this screen is obtained by challenging chopped lung fragments from actively sensitized guinea pigs with egg albumin, in vitro. A dose-response curve to SRS-A challenge is established for the ileum. […] The drug concentration which inhibits, by 50%, the SRS-A induced constriction of the guinea pig ileum is determined.

LTE4 [2] = assay: Rat Skin Permeability, in Vivo (LTE4-induced wheal); conditions: 10 mg/kg i.v., LTE4 intradermal, 30 min, 5 animals
Procedure: In this model the ability of LTE4 to increase vascular permeability in rat skin was utilized. Anesthetized rats, pretreated for 30 minutes with an antihistamine, pyrilamine maleate, (50 mg/kg i.p.) and a serotonin antagonist, methylsergide maleate (4 mg/kg i.p.), were injected intradermally with a dose of LTE4 which gave a maximum wheal (in 0.05 ml saline). After introduction of test drug (at 10 mg/kg, i.v.) the animals were immediately treated intravenously with Evans blue dye i.v. (0.5%) in the tail vein resulting in the formation of a skin wheal. Thirty minutes later the animals were sacrificed and the skin wheal size was measured. The average response in 5 animals (4 intradermal injections per animal) treated with test compound was compared to that obtained in a similar group of control animals to determine the percent inhibition by the drug. A representative compound of the present invention, i.e., 6-(4-acetyl-3-hydroxy-2-propylphenoxy)hexanoic acid, caused a 35% reduction in skin wheal when tested at 10 mg/kg i.v.

LTE4 [3] = assay: Aerosol Test (LTE4-induced bronchoconstriction, drug by inhalation); type: in vivo, guinea pig (Hartley strain, male); conditions: 1% (W/V) aerosol solution, five minute exposure, LTE4 i.v. challenge
Procedure: Male guinea pigs (Hartley strain) weighing 300 to 500 g are anesthetized with urethane (2 g/kg) intraperitoneally and a polyethylene cannula is inserted into the jugular vein for test compound administration. Tracheal pressure is recorded from a cannula inserted in the trachea and connected to a Statham pressure transducer. After surgical preparation of the animals, a period of time is allowed for pulmonary functions to stabilize. For testing purposes, drugs are administered according to the following protocol. Propranolol (0.1 mg/kg) is administered intravenously while the animals breathed spontaneously. Five minutes thereafter, the animals are exposed for a five minute period to a 1% (W/V) aerosol solution of test compound (adjusted to an alkaline pH where necessary for compound solubilization) or to distilled water of the appropriate pH (for control purposes). A Monaghan (Model 750) ultrasonic nebulizer is used to administer all compounds by inhalation. Aqueous solutions are prepared fresh and introduced into the chamber of the nebulizer. The output of the nebulizer is made available to the animal by directing a bias flow of aerosol through a y tube connected to the tracheal cannula. At the end of the exposure period, the animals are paralyzed with succinylcholine (1.2 mg/kg, i.v.) and mechanically respirated (Harvard rodent respirator) at 40 breaths/min and 2.5 cc tidal volume. […]

leukotriene E4 = assay: Guinea Pig Bronchoconstriction, In Vivo (leukotriene E4 i.v. challenge, drug i.v.); set-up: species or system guinea pig (Hartley strain, male); conditions: 10 mg/kg i.v., maximally constrictory dose of leukotriene E4 i.v.
Procedure: Male guinea pigs (Hartley strain) weighing 300 to 450 grams are anesthetized with urethane (2 g/Kg) intraperitoneally and a polyethylene cannula is inserted into the jugular vein for intravenous drug administration. Tracheal pressure is recorded from a cannula inserted in the trachea and connected to a Statham pressure transducer. Respiration is paralyzed with succinyl choline (1.2 mg/kg, i.v.) and the animals are mechanically respirated ([…] rodent respirator) at 40 breaths/minute and 2.5 cc tidal volume. The minutes thereafter, propranolol (0.1 mg/kg, i.v.) is administered. Five minutes later, the animals are pretreated intravenously for 30 seconds (at 10 mg/kg) with test drug or control vehicle. The animals are subsequently challenged with a maximally constrictory dose of leukotriene E4 also administered intravenously. The change (cm H2 O) between pre and peak ventilatory pressure readings is averaged calculated from the following formula: [formula]

[4] = guinea pig ileum, SRS-A challenge at EC50, 37° C., Table I, read-out: In vitro SRSA Antagonism Test, Guinea Pig Ileum IC50

| Compound | IC50 [1, 4] | further results |
| --- | --- | --- |
| CCCc1c(OCCCC(=O)O)ccc(C(C)=O)c1O [(CH2)3, 4-(4-Acetyl-3-hydroxy-2-propylphenoxy)butanoic acid] | 10 µM |  |
| CCCc1c(OCCCC#CC(=O)O)ccc(C(C)=O)c1O [(CH2)3 CC, 6-(4-Acetyl-3-hydroxy-2-propylphenoxy)-2-hexynoic acid] | 1 µM |  |
| CCCc1c(OCCCCCC(=O)O)ccc(C(C)=O)c1O [(CH2)5, 6-(4-Acetyl-3-hydroxy-2-propylphenoxy)hexanoic acid] | 1 µM | reduction in skin wheal (LTE4 [2]): 35%; inhibition of the bronchoconstriction (LTE4 [3]): 36%; inhibition of leukotriene E4 bronchoconstriction (leukotriene E4): 73% |
| CCCc1c(OCC(=O)O)ccc(C(C)=O)c1O [CH2, (4-Acetyl-3-hydroxy-2-propylphenoxy)acetic acid] | 10 µM |  |
| CCCc1c(OCCC(=O)O)ccc(C(C)=O)c1O [(CH2)2, 3-(4-Acetyl-3-hydroxy-2-propylphenoxy)propanoic acid] | 10 µM |  |
| CCCc1c(OCCOCCC(=O)O)ccc(C(C)=O)c1O [(CH2)2 O(CH2)2, 3-[2-(4-Acetyl-3-hydroxy-2-propylphenoxy)ethoxy]propanoic acid semihydrate] | 5 µM |  |
| CCCc1c(OCCOCCOCCOCCC(=O)O)ccc(C(C)=O)c1O [(CH2)2 O(CH2)2 O(CH2)2 O(CH2)2, 3-[2-[2-[2-(4-Acetyl-3-hydroxy-2-propylphenoxy)ethoxy]ethoxy]ethoxy]propanoic acid semihydrate] | 6 µM |  |
| CCCc1c(OCCCCCCCC(=O)O)ccc(C(C)=O)c1O [(CH2)7, 8-(4-Acetyl-3-hydroxy-2-propylphenoxy)octanoic acid] | 5 µM |  |
| CCCc1c(OCC#CCCCC(=O)O)ccc(C(C)=O)c1O [CH2 CC(CH2)3, 7-(4-Acetyl-3-hydroxy-2-propylphenoxy)-5-heptynoic acid] | 1 µM |  |
| CCCc1c(OCC(O)COc2ccc3c(=O)cc(C(=O)O)oc3c2CCC)ccc(C(C)=O)c1O (centres unmarked) [7-[3-(4-acetyl-3-hydroxy-2-propylphenoxy)-2-hydroxypropoxy]-4-oxo-8-propyl-4 H-1-benzopyran-2-carboxylic acid, reference compound] |  | IC50 ([1]; read-out: IC50 (standard SRS-A antagonist)): 0.035 µM; inhibition of leukotriene E4 bronchoconstriction (leukotriene E4): 98% |
| CCCc1c(OCCCCC(=O)O)ccc(C(C)=O)c1O [(CH2)4, 5-(4-Acetyl-3-hydroxy-2-propylphenoxy)pentanoic acid] | 5 µM |  |
| CCCc1c(OCCCCCCC(=O)O)ccc(C(C)=O)c1O [(CH2)6, 7-(4-Acetyl-3-hydroxy-2-propylphenoxy)heptanoic acid] | 5 µM |  |
| CCCc1c(OCCCCCCCCCCC(=O)O)ccc(C(C)=O)c1O [(CH2)10, 11-(4-Acetyl-3-hydroxy-2-propylphenoxy)undecanoic acid] | 10 µM |  |

Reference: patent US4628115A, “Substituted 4-acetyl-3-hydroxyphenoxy alkanoic acids” (Hoffmann-La Roche Inc., priority 1985, dated 1986)
